The text below walks through data of patent US20220354957A1, “PEPTIDES TARGETING MACROPHAGES, AND CONJUGATES, COMPOSITIONS, AND USES THEREOF” (Twinpig Biolab, Inc., priority 2021, published 2022).

The test system of data set [1] is lung fibrosis induced by bleomycin. As to the kind of experiment: Mouse model of lung fibrosis (bleomycin). Format: in vivo. As to the method:
For lung fibrosis mouse model, C57BL/6 (B6) wild-type mice were lightly anesthetized with 2.5% isoflurane and administered bleomycin (BLM, 2 mg/kg) via oropharyngeal aspiration (OA) using a micropipette. After 14 days, the mice were intraperitoneally injected with MpepK (200 nmol/kg) every other day. The animal studies were approved by the Institutional Animal Care and Use Committee of Kyung Hee University (KHUASP(SE)-20-530 for melanoma and 20-382 for prostate cancer). All animals were maintained in a specific pathogen-free environment on a 12-h light/dark cycle with free access to food and water. Nesting sheets were used for enrichment. After the experiments were terminated, all mice were euthanized using isoflurane and cervical dislocation.
Total RNA was extracted using Easy-Blue reagent. Concentrations of RNA were determined and quantified by measuring absorbance at 260 and 280 nm with a spectrophotometer. […] PCR conditions were forty-five cycles at 95° C. for 5 min, followed by 95° C. for 10 sec, 60° C. for 10 sec and 72° C. for 10 sec. mRNA expression were quantified in triplicate. Data were measured with CFX Software (Bio-Rad). […]
The lung tissues of lung fibrosis mouse model were fixed in 10% neutral buffered formalin and embedded in paraffin. […] The sections were examined and evaluated randomly using standard light microscopy (Olympus).

The next data set has as its system CT26. As to the kind of experiment: Colon cancer model (CT26). The class given is in vivo, mouse. Particulars: vs PBS group. The text has this:
(§1) BALB/c and C57BL/6 (B6) wild-type mice were purchased from DBL. For the subcutaneous tumor model of melanoma and prostate cancer, CT26 (3×10^5 cells/mouse), B16F10 (1×10^6 cells/mouse) and TRAMP-C2 cells (1×10^6 cells/mouse) were mixed with Matrigel matrix (Corning) and inoculated subcutaneously into the right flank of the mice, and 4T1 (1×10^5 cells/mouse) cells mixed with Matrigel matrix and inoculated into a 4th mammary fat pad of the mice. TAMpepK, and MpepK peptides (200 nmol/kg) were injected intraperitoneally every 3 days, beginning at day 7 after tumor inoculation, and tumor volume was measured by electronic caliper. All tumor tissues were harvested after the end of the study and tumor weight was measured by an electronic balance.

Data set [2] deals with PC3 cells. As to the kind of experiment: Proliferation and migration of prostate cancer cells by conditioned medium of macrophages. The class given is cell-based, human. Conditions: conditioned media of M2 macrophages and M2-like TAMs pretreated with peptide. How it is done: (§2) To obtain conditioned media of tumor (TCM), PC3 cells were seeded at 2×10^5 cells/well in culture medium in 24-well plates (Corning Inc). After 24 hours, the medium was changed to serum-free RPMI1640 medium and the cells were incubated for 24 hours. For conditioned media of macrophages, THP-1 cells were seeded at 2×10^5 cells/well in culture medium in 24-well plates (Corning Inc) and incubated with 100 nM PMA for 24 h. Cells were polarized into M0, M1, and M2 macrophages or TAM macrophages by TCM and changed to serum-free RPMI1640 medium. After 24 hours, the medium was changed to serum-free RPMI1640 medium and the cells were incubated for 24 hours. Supernatants were harvested and clarified with syringe filters (0.2 μm, Milipore). Supernatants of PC3 cells were named tumor-conditioned medium (TCM).
Migration of prostate cancer and melanoma cells was assessed with wound healing assays. PC3 and Sk-Mel-28 cells were seeded at 2×10^5 cells/well in 24-well plates and cultured in RPMI1640 with 10% FBS. When the cells reached confluence, they were wounded by scraping across the surface of the well with a sterile micropipette tip. […] Wound areas were measured with ImageJ software (NCI, Bethesda, Md., USA). The percent of each wounded area filled by cell migration was calculated as: (mean wounded breadth—mean remaining breadth)/mean wounded breadth×100.

Data set [3] has as its system macrophages treated with TCM. As to the kind of experiment: Cell viability of macrophages differentiated by TCM. Particulars: 1 μM. Format: cell-based, human.
Data set [4] concerns PC3 cells. As to the kind of experiment: Invasion assay of prostate cancer cells with conditioned medium of macrophages. Format: cell-based, human. Conditions: conditioned medium of M2 macrophages and M2-like TAMs pretreated with peptide. How it is done:
as §2, with “Supernatants of PC3 cells were named tumor-conditioned medium (TCM).” left out
The invasiveness of prostate cancer cells treated with conditioned media of macrophages was tested according to the manufacturer's instructions for the invasion assay (Corning Inc.) with slight modifications. Briefly, invasiveness was assessed using 24-well plates fitted with polycarbonate 8-μm pore membrane inserts (Corning Inc.) pre-coated with Matrigel (200-300 μg/mL) for 2 hours at 37° C. […] Five randomly selected fields per membrane were counted under a light microscope (Olympus). The invasion index was calculated from the number of cells that migrated in response to conditioned medium compared with the control without conditioned medium.

Data set [5] deals with murine melanoma cells (B16F10 cell line). As to the kind of experiment: Mouse model of melanoma (subcutaneous B16F10). Particulars: vs PBS group. The class given is in vivo.
Description: as §1

The subject of the next data set is Hepa1-6 cells. As to the kind of experiment: Mouse model of hepatocellular carcinoma (subcutaneous Hepa1-6). The class given is in vivo. As to the method:
C57BL/6 (B6) wild-type mice purchased from DBL. For the subcutaneous tumor model of hepatocellular carcinoma, Hepa1-6 cells were mixed with Matrigel matrix (Corning) and inoculated subcutaneously into the right flank (4×10^5 cells/mouse) of the mice. MpepK peptide (100, 200 and 400 nmol/kg) were injected intraperitoneally every 3 days, beginning at day 12 after tumor inoculation and tumor volume was measured by electronic caliper. All animals were maintained in a specific pathogen-free environment on a 12-h light/dark cycle with free access to food and water. After the experiments were terminated, all mice were euthanized using isoflurane and cervical dislocation.

Where [6] appears, read: B16F10 in C57BL6J mice, 200 nmol/kg i.p. every 3 days.

Take `CC[C@H](C)[C@H](NC(=O)[C@H](CC(C)C)NC(=O)[C@H](C)NC(=O)[C@@H]1CCCN1C(=O)[C@H](CC(C)C)NC(=O)CNC(=O)[C@@H](NC(=O)[C@@H](NC(=O)[C@H](CC(C)C)NC(=O)[C@@H](NC(C)=O)C(C)C)[C@@H](C)O)[C@@H](C)O)C(=O)N[C@@H](CO)C(=O)N[C@@H](Cc1c[nH]c2ccccc12)C(=O)N[C@H](C(=O)N[C@@H](CCCCN)C(=O)N[C@@H](CCCNC(=N)N)C(=O)N[C@@H](CCCCN)C(=O)N[C@@H](CCCNC(=N)N)C(=O)N[C@@H](CCC(N)=O)C(=O)N[C@@H](CCC(N)=O)C(=O)NCC(=O)NCC(=O)NCC(=O)NCC(=O)N[C@@H](CO)C(=O)N[C@H](CCCCN)C(=O)N[C@H](CC(C)C)C(=O)N[C@H](C)C(=O)N[C@H](CCCCN)C(=O)N[C@H](CC(C)C)C(=O)N[C@H](C)C(=O)N[C@H](CCCCN)C(=O)N[C@H](CCCCN)C(=O)N[C@H](CC(C)C)C(=O)N[C@H](C)C(=O)N[C@H](CCCCN)C(=O)N[C@H](CC(C)C)C(=O)N[C@H](C)C(=O)N[C@H](CCCCN)C(=O)O)[C@@H](C)CC` [MpepK]: in data set [1] (200 nmol/kg i.p. every other day, H&E), the “lung fibrosis induced by bleomycin” value was “decreased”. Further, the “gene expression related to fibrosis such as fos12, collagen type 1 and fibronectin 1” value in data set [1] (compared to PBS) is on record as “significantly reduced”. In addition, the tumor volume entry with CT26 is “significantly reduced”; in data set [5] (setting [6]) it was “reduced”; in the data set with Hepa1-6 cells (Hepa1-6 model, all doses (100, 200 and 400 nmol/kg) i.p. every 3 days, vs PBS group) it was “significantly reduced”. Further, the values for the tumor weight result (in the data set with CT26; in data set [5] (setting [6])) were “not significantly changed” and “reduced”, respectively. In addition, in the data set with PC3 cells [2], the “proliferation of PC3 cells” value was “significantly reduced”. The “migration of PC3 cells” value in the data set with PC3 cells [2] (wound healing) is given as “significantly reduced”. For the same molecule, the “apoptosis in macrophages treated with TCM” value in data set [3] is listed as “induced apoptosis”. Further, the “invasion of PC3 cells” value with PC3 cells [4] is listed as “significantly reduced”. Further, the survival rate result in data set [5] (B16F10 melanoma model) is “extended”; in the data set with Hepa1-6 cells (Hepa1-6 model, 100, 200 and 400 nmol/kg, vs PBS group) it was “significantly extended”. The body weight change result in the data set on Hepa1-6 cells (Hepa1-6 model, 100, 200 and 400 nmol/kg i.p. every 3 days) is on record as “no significant difference”.
